Test results: publication PMC7026080, “Phenotypic high-throughput screening platform identifies novel chemotypes for necroptosis inhibition” (Cell Death Discovery, 2020)

System: HT29 cells
Test: Necroptosis protection in HT29 cells (TNF-α + Smac mimetic + Z-VAD-FMK), 24 h
Type: cell-based, human
Conditions: compounds at 10 μM, hTNF-α + Smac mimetic + Z-VAD-FMK
Protocol: Necroptosis inhibition properties were further examined using two additional cellular models of regulated necrosis. First, in human adenocarcinoma HT29 cells, and then in immortalized murine microglial BV2 cells, where we co-incubated a mixture of human or murine TNF-α, Smac mimetic […], pan-caspase inhibitor Z-VAD-FMK[29] or Z-VAD-FMK alone, and tested compounds at 10 μM for 24 h. […] In parallel, preliminary data for compound liver toxicity was extrapolated using HepG2 cells.
Fig. 3 Secondary-stage cascade for hit validation and compound refinement for further studies. a Compound ability to prevent necroptosis execution in HT29 cells co-incubated with 20 ng/mL hTNF-α (T) together with 250 nM Smac mimetic BV6 (S) and […] Z-VAD-FMK (Z), and selected compounds at 10 μM for 24 h. b Selected compound ability to prevent necroptosis execution in BV2 cells co-incubated with 25 μM Z-VAD-FMK (Z) and compounds at 10 μM for 24 h. c Selected compound toxicity evaluation in HepG2 cells incubated with test compounds at 100 and 50 μM for 24 h. Data represent mean values ± SEM of three independent experiments normalized to untreated control. Cell viability was assessed using a luminescence-based readout for AK release and ATP production, and a colorimetric-based readout for LDH release and MTS metabolism. ns, not significant; *p < 0.05, ***p < 0.001.
Cell treatments and viability assays. […]

## CN1C(=O)C(Cc2c[nH]c3ccccc23)NC1=S (stereo not shown) [Nec-1, necrostatin-1]
  Protection from necroptosis in HT29 cells (membrane integrity by AK and LDH release, ATP levels): completely rescued membrane integrity and ensured metabolic cell viability
